The experiment concerns the target human c-MER catalytic domain (Homo sapiens (Human), UniProt Q12866). The experiment is described as follows: TR-FRET Kinase Activity Biochemical Assay (LanthaScreen). The note with it: 10 uM ATP, 1 hour, kinase not given. The procedure, abridged:
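Recombinant human c-MER catalytic domain phosphorylated fluorescein-labeled poly-GT substrate. The reaction was stopped with 10 mM EDTA, then 2 nM Tb-labeled anti-phosphotyrosine antibody was added for 30 min. Kinase activity was taken from the 495/520 nm TR-FRET emission ratio after 340 nm excitation.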

Each structure is given as a SMILES string. A value given as a limit tells only on which side of the number the result lay.

Chain of human c-MER catalytic domain (Q12866 587-858): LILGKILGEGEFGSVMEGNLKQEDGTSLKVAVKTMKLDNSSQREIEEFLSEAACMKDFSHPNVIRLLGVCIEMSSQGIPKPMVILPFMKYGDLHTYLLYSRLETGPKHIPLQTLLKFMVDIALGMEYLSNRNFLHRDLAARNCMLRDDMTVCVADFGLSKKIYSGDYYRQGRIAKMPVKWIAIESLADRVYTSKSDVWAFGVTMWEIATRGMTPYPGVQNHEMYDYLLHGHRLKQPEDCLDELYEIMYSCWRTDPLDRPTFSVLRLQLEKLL

Turning to `CN1CCN(Cc2cccc(-c3ccc(NC(=O)N4CC[C@@H](NC(=O)c5cc(-c6cnn(C)c6)cnc5N)C4)cc3)c2)CC1` [Example 272, (R)-2-amino-5-(1-methyl-1H-pyrazol-4-yl)-N-(1-((3′-((4-methylpiperazin-1-yl)methyl)-[1,1′-biphenyl]-4-yl)carbamoyl)pyrrolidin-3-yl)nicotinamide], the IC50 (commonly the concentration that inhibits the measured activity by half) lay within 100 to 1000 nM.

Regarding `CN1CCN(Cc2ccc(-c3ccc(NC(=O)N4CC[C@@H](NC(=O)c5cc(-c6cnn(C)c6)cnc5N)C4)cc3)cc2)CC1` [Example 273, (R)-2-amino-5-(1-methyl-1H-pyrazol-4-yl)-N-(1-((4′-((4-methylpiperazin-1-yl)methyl)-[1,1′-biphenyl]-4-yl)carbamoyl)pyrrolidin-3-yl)nicotinamide], the IC50 was more than 1000 nM.

Take `Cn1cc(-c2cnc(N)c(C(=O)N[C@@H]3CCN(C(=O)Oc4cccc(-c5ccc(CCC(=O)O)cc5)c4)C3)c2)cn1` [Example 276, (R)-3-(3′-((3-(2-amino-5-(1-methyl-1H-pyrazol-4-yl)nicotinamido)pyrrolidine-1-carbonyl)oxy)-[1,1′-biphenyl]-4-yl) propanoic acid]: the IC50 lay within 100 to 1000 nM.

Turning to `Cn1cc(-c2cnc(N)c(C(=O)N[C@@H]3CCN(C(=O)Oc4cccc(-c5cccc(C(=O)NCCC#N)c5)c4)C3)c2)cn1` [Example 277, 3′-((2-cyanoethyl)carbamoyl)-[1,1′-biphenyl]-3-yl (R)-3-(2-amino-5-(1-methyl-1H-pyrazol-4-yl)nicotinamido)pyrrolidine-1-carboxylate], the IC50 lay in the range of 100 to 1000 nM.

With `Cn1cc(-c2cnc(N)c(C(=O)N[C@@H]3CCN(C(=O)Oc4cccc(-c5cnn(Cc6ccccc6)c5)c4)C3)c2)cn1` [Example 283, 3-(1-benzyl-1H-pyrazol-4-yl)phenyl (R)-3-(2-amino-5-(1-methyl-1H-pyrazol-4-yl)nicotinamido)pyrrolidine-1-carboxylate], the IC50 is 100 to 1000 nM.

`Cn1cc(-c2cnc(N)c(C(=O)N[C@@H]3CCN(C(=O)Oc4cccc(-c5cnn(C6CCNCC6)c5)c4)C3)c2)cn1` [Example 285, 3-(1-(piperidin-4-yl)-1H-pyrazol-4-yl)phenyl (R)-3-(2-amino-5-(1-methyl-1H-pyrazol-4-yl)nicotinamido)pyrrolidine-1-carboxylate]: the 50% inhibitory concentration (IC50) was in the range of 100 to 1000 nM.

On to `Cn1cc(-c2cnc(N)c(C(=O)N[C@@H]3CCN(C(=O)Oc4cccc(-c5cnn(CCN6CCCC6)c5)c4)C3)c2)cn1` [Example 286, 3-(1-(2-(pyrrolidin-1-yl)ethyl)-1H-pyrazol-4-yl)phenyl (R)-3-(2-amino-5-(1-methyl-1H-pyrazol-4-yl)nicotinamido)pyrrolidine-1-carboxylate], for which the IC50 was 100 to 1000 nM.

In turn, `Cn1cc(-c2cnc(N)c(C(=O)N[C@@H]3CCN(C(=O)Oc4cc(Cl)cc(-c5ccc(CO)cc5)c4)C3)c2)cn1` [Example 291, 5-chloro-4′-(hydroxymethyl)-[1,1′-biphenyl]-3-yl (R)-3-(2-amino-5-(1-methyl-1H-pyrazol-4-yl)nicotinamido)pyrrolidine-1-carboxylate] showed an IC50 of 10 to 100 nM.

On to `CN1CCN(Cc2ccc(-c3cc(Cl)cc(OC(=O)N4CC[C@@H](NC(=O)c5cc(-c6cnn(C)c6)cnc5N)C4)c3)cc2)CC1` [Example 292, 5-chloro-4′-((4-methylpiperazin-1-yl)methyl)-[1,1′-biphenyl]-3-yl (R)-3-(2-amino-5-(1-methyl-1H-pyrazol-4-yl)nicotinamido)pyrrolidine-1-carboxylate], for which the 50% inhibitory concentration (IC50) is less than 10 nM.

In turn, `Cn1cc(-c2cnc(N)c(C(=O)N[C@@H]3CCN(C(=O)Oc4ccc5ccc(OC6CCNCC6)cc5c4)C3)c2)cn1` [Example 294, 7-(piperidin-4-yloxy)naphthalen-2-yl (R)-3-(2-amino-5-(1-methyl-1H-pyrazol-4-yl)nicotinamido)pyrrolidine-1-carboxylate] showed a 50% inhibitory concentration (IC50) of 10 to 100 nM.

`CN(C)CCCOc1ccc2ccc(OC(=O)N3CC[C@@H](NC(=O)c4cc(-c5cnn(C)c5)cnc4N)C3)cc2c1` [Example 295, 7-(3-(dimethylamino)propoxy)naphthalen-2-yl (R)-3-(2-amino-5-(1-methyl-1H-pyrazol-4-yl)nicotinamido)pyrrolidine-1-carboxylate]: the 50% inhibitory concentration (IC50) was 10 to 100 nM.

For `CN(C)CCOc1ccc2ccc(OC(=O)N3CC[C@@H](NC(=O)c4cc(-c5cnn(C)c5)cnc4N)C3)cc2c1` [Example 296, 7-(2-(dimethylamino)ethoxy)naphthalen-2-yl (R)-3-(2-amino-5-(1-methyl-1H-pyrazol-4-yl)nicotinamido)pyrrolidine-1-carboxylate], the IC50 is 10 to 100 nM.

`CN1CCC(Oc2ccc3ccc(OC(=O)N4CC[C@@H](NC(=O)c5cc(-c6cnn(C)c6)cnc5N)C4)cc3c2)CC1` [Example 297, 7-((1-methylpiperidin-4-yl)oxy)naphthalen-2-yl (R)-3-(2-amino-5-(1-methyl-1H-pyrazol-4-yl)nicotinamido)pyrrolidine-1-carboxylate] returned an IC50 of 100 to 1000 nM.

`CN(C)CCOc1ccc2cc(OC(=O)N3CC[C@@H](NC(=O)c4cc(-c5cnn(C)c5)cnc4N)C3)ccc2c1` [Example 300, 6-(2-(dimethylamino)ethoxy)naphthalen-2-yl (R)-3-(2-amino-5-(1-methyl-1H-pyrazol-4-yl)nicotinamido)pyrrolidine-1-carboxylate] displayed an IC50 of 100 to 1000 nM.

`CN(C)CCCOc1ccc2cc(OC(=O)N3CC[C@@H](NC(=O)c4cc(-c5cnn(C)c5)cnc4N)C3)ccc2c1` [Example 301, 6-(3-(dimethylamino)propoxy)naphthalen-2-yl (R)-3-(2-amino-5-(1-methyl-1H-pyrazol-4-yl)nicotinamido)pyrrolidine-1-carboxylate] returned a half-maximal inhibitory concentration (IC50) of 100 to 1000 nM.

`Cn1cc(-c2cnc(N)c(C(=O)N[C@@H]3CCN(C(=O)Oc4ccc5cc(OC6CCNCC6)ccc5c4)C3)c2)cn1` [Example 302, 6-(piperidin-4-yloxy)naphthalen-2-yl (R)-3-(2-amino-5-(1-methyl-1H-pyrazol-4-yl)nicotinamido)pyrrolidine-1-carboxylate] showed a 50% inhibitory concentration (IC50) of 10 to 100 nM.

In turn, `Cn1cc(-c2cnc(N)c(C(=O)N[C@@H]3CCN(C(=O)Oc4cccc(OCC5CCNCC5)c4)C3)c2)cn1` [Example 304] returned an IC50 of 100 to 1000 nM.

For the molecule `Cn1cc(-c2cnc(N)c(C(=O)N[C@@H]3CCN(C(=O)Oc4cccc(-c5ccc(CNCC6CNC6)cc5)c4)C3)c2)cn1` [Example 309, 4′-(((azetidin-3-ylmethyl)amino)methyl)-[1,1′-biphenyl]-3-yl (R)-3-(2-amino-5-(1-methyl-1H-pyrazol-4-yl)nicotinamido)pyrrolidine-1-carboxylate], the 50% inhibitory concentration (IC50) fell in the range of 10 to 100 nM.

The molecule `Cn1cc(-c2cnc(N)c(C(=O)N[C@@H]3CCN(C(=O)Oc4cccc(-c5ccc(CN6CCC(N)CC6)cc5)c4)C3)c2)cn1` [Example 317, 4′-((4-aminopiperidin-1-yl)methyl)-[1,1′-biphenyl]-3-yl (R)-3-(2-amino-5-(1-methyl-1H-pyrazol-4-yl)nicotinamido)pyrrolidine-1-carboxylate] came in with an IC50 of 10 to 100 nM.

In turn, `Cn1cc(-c2cnc(N)c(C(=O)N[C@@H]3CCN(C(=O)Oc4cccc(-c5ccc(CNCC(=O)O)cc5)c4)C3)c2)cn1` [Example 326, (R)-((3′-((3-(2-amino-5-(1-methyl-1H-pyrazol-4-yl)nicotinamido)pyrrolidine-1-carbonyl)oxy)-[1,1′-biphenyl]-4-yl)methyl)glycine] gave an IC50 of 100 to 1000 nM.

For the molecule `Cn1cc(-c2cnc(N)c(C(=O)N[C@@H]3CCN(C(=O)Oc4cccc(-c5ccc(CN6CC[C@@H](N)C6)cc5)c4)C3)c2)cn1` [Example 330, 4′-(((R)-3-aminopyrrolidin-1-yl)methyl)-[1,1′-biphenyl]-3-yl (R)-3-(2-amino-5-(1-methyl-1H-pyrazol-4-yl)nicotinamido)pyrrolidine-1-carboxylate], the half-maximal inhibitory concentration (IC50) was in the range of 10 to 100 nM.

As to `Cn1cc(-c2cnc(N)c(C(=O)N[C@@H]3CCN(C(=O)Oc4cccc(-c5ccc(CN6CC[C@H](N)C6)cc5)c4)C3)c2)cn1` [Example 331, 4′-(((S)-3-aminopyrrolidin-1-yl)methyl)-[1,1′-biphenyl]-3-yl (R)-3-(2-amino-5-(1-methyl-1H-pyrazol-4-yl)nicotinamido)pyrrolidine-1-carboxylate], the concentration for half-maximal inhibition (IC50) was 10 to 100 nM.

`Cn1cc(-c2cnc(N)c(C(=O)N[C@@H]3CCN(C(=O)Oc4cccc(-c5ccc(CN6CCC[C@H](N)C6)cc5)c4)C3)c2)cn1` [Example 332, 4′-(((S)-3-aminopiperidin-1-yl)methyl)-[1,1′-biphenyl]-3-yl (R)-3-(2-amino-5-(1-methyl-1H-pyrazol-4-yl)nicotinamido)pyrrolidine-1-carboxylate] had an IC50 of 10 to 100 nM.

`Cn1cc(-c2cnc(N)c(C(=O)N[C@@H]3CCN(C(=O)Oc4cccc(-c5ccc(CN6CCCC6)cc5)c4)C3)c2)cn1` [Example 333, 4′-(pyrrolidin-1-ylmethyl)-[1,1′-biphenyl]-3-yl (R)-3-(2-amino-5-(1-methyl-1H-pyrazol-4-yl)nicotinamido)pyrrolidine-1-carboxylate] registered an IC50 of 10 to 100 nM.

In turn, `Cn1cc(-c2cnc(N)c(C(=O)N[C@@H]3CCN(C(=O)Oc4cccc(-c5ccc(CN6CCCCC6)cc5)c4)C3)c2)cn1` [Example 334, 4′-(piperidin-1-ylmethyl)-[1,1′-biphenyl]-3-yl (R)-3-(2-amino-5-(1-methyl-1H-pyrazol-4-yl)nicotinamido)pyrrolidine-1-carboxylate] registered an IC50 of 100 to 1000 nM.

Molecule `Cn1cc(-c2cnc(N)c(C(=O)N[C@@H]3CCN(C(=O)Oc4cccc(-c5ccc(CN6CCOCC6)cc5)c4)C3)c2)cn1` [Example 335, 4′-(morpholinomethyl)-[1,1′-biphenyl]-3-yl (R)-3-(2-amino-5-(1-methyl-1H-pyrazol-4-yl)nicotinamido)pyrrolidine-1-carboxylate] had a half-maximal inhibitory concentration (IC50) of 100 to 1000 nM.

As for `Cn1cc(-c2cnc(N)c(C(=O)N[C@@H]3CCN(C(=O)Oc4cccc(-c5cccc(CN6CC[C@@H](N)C6)c5)c4)C3)c2)cn1` [Example 336, 3′-(((R)-3-aminopyrrolidin-1-yl)methyl)-[1,1′-biphenyl]-3-yl (R)-3-(2-amino-5-(1-methyl-1H-pyrazol-4-yl)nicotinamido)pyrrolidine-1-carboxylate], the IC50 was in the range of 100 to 1000 nM.

The record behind these values is patent US12378224B2 (Dong-A Socio Holdings Co., Ltd., priority 2016, dated 2025).
